A word on the Log P: it is a log measure of how a compound divides between an organic and an aqueous phase.

In brackets after ≈: the same amount, converted by molar mass.

These results are taken from US20250195427A1, “ANTI-INFLAMMATORY DRUG-ELUTING COMPOSITIONS AND METHODS” (THE REGENTS OF THE UNIVERSITY OF CALIFORNIA, priority 2022, published 2025).

The conditions of data set [1]: cited from earlier work.
Data set [2] can be described thus: Drug loading of mPEG-b-p(HPMAm-Lacn) micelles by HPLC (loaded concentration, encapsulation efficiency, loading capacity). The class given is physicochemical. The following applies: for final concentration of drug loaded inside MCs: polymer 10 mg/mL, 1 mL MC solution, HPLC; for difference in encapsulation efficiency (EE) % with various polymer/drug ratios: polymer/drug ratios 10:0.25 to 10:2. How it is done:
Drug loaded MCs were formed by self-assembly via a solvent evaporation method. Briefly, 10 mg of copolymers […] dissolved in 1 mL of acetone. Various amounts of drugs (0.25, 0.5, 1 and 2 mg) were then added to the copolymer solution and vortexed until fully mixed. […] The next day, the MC solution was centrifuged at 4,000 rpm at 22° C. for 10 min to remove unencapsulated drugs. LE, PA, and DEX were three drugs of interest. 30 mg/mL of drug stock solutions were prepared in DMSO. Unloaded MCs were prepared with the same procedure without the addition of drugs. The amount of loaded drugs (LE, PA and DEX) in the polymeric MCs was determined by using High Performance Liquid Chromatography (HPLC). Taking LE as an example, after centrifugation of the MC solution, the unencapsulated LE pellet was redissolved in 1 mL of ACN. […] LE dissolved in ACN (concentration from 0.1 mg/ml to 1 mg/ml) was used for calibration. The encapsulation efficiency (EE) and loading capacity (LC) were calculated as follows: […]

In the case of `CCOC(=O)O[C@]1(C(=O)OCCl)CC[C@H]2[C@@H]3CCC4=CC(=O)C=C[C@]4(C)[C@H]3[C@@H](O)C[C@@]21C` [LE, Loteprednol etabonate], the “Log P” value in data set [1] is 3.08. The solubility in water in data set [1] was 500 ng/mL (≈ 1.07 µM). In addition, the “final concentration of drug loaded inside MCs” value in data set [2] (initially applied drug 0.25 mg) stood at 55.7 ± 10.0 µg/mL; in data set [2] (initially applied drug 2 mg), 589.2 ± 75.5 µg/mL. Further, the “difference in encapsulation efficiency (EE) % with various polymer/drug ratios” value in data set [2] is “No significant difference”.

Take `CC(=O)OCC(=O)[C@@]1(O)CC[C@H]2[C@@H]3CCC4=CC(=O)C=C[C@]4(C)[C@H]3[C@@H](O)C[C@@]21C` [PA, Prednisolone acetate]: the “final concentration of drug loaded inside MCs” value in data set [2] (initially applied drug 0.25 mg) worked out at 171.7 ± 4.2 µg/mL; in data set [2] (initially applied drug 2 mg), 1154.0 ± 108.6 µg/mL. In addition, the “difference in encapsulation efficiency (EE) % with various polymer/drug ratios” value in data set [2] is “No significant difference”.
